Source: patent US9572760B2, “Uses of compounds and mixtures from Antrodia cinnamomea mycelia” (Simpson Biotech Co., Ltd., priority 2013, dated 2017)

Key:
[1] = tested on: TGFb1-treated immortalized HSC; experiment: Profibrogenic gene expression in immortalized HSC with recombinant TGF-β treatment (qRT-PCR); assay type: cell-based, human; conditions: for Collagen-1 expression / TGF-β expression / TIMP-1 expression / αSMA expression: compounds 72 hours, then TGF-β (3 ng/ml) 48 hours
Text: The AML12 (mouse hepatocyte) cells were obtained from the BCRC (Bioresource Collection and Research Center) and cultured in Dulbecco's modified Eagle media (DMEM, Gibco by Invitrogen) with 1% antibiotic antimycotic (Gibco by Invitrogen) and 15% fetal bovine serum (Gibco by Invitrogen). The human Hepatic Stellate Cell, HSC cell line was obtained from the ScienCell Research Laboratory (USA) and cultured in complete medium, Stellate Cell Medium (ScienCell Research Laboratory) with 2% fetal bovine serum (ScienCell Research Laboratory), 1% stellate cell growth supplement (ScienCell Research Laboratory) and 1% penicillin/streptomycin solution (ScienCell Research Laboratory). […] For primary hepatic stellate cell isolation, C57BL/6 mice were anesthetized by intraperitoneal injection of ketamine and xylazine. […] Mouse livers were perfused in situ with 0.5 mM EGTA containing calcium-free salt solution (8 ml/min, 37° C. for 5 minutes), followed by perfusion with 2-step 0.05% collagenase D and pronase containing buffer (Roche Molecular Biochemicals, Indianapolis, Ind.) for 5 and 10 minutes, respectively. The harvested liver was minced gently on a Petri dish and additional incubation with protease containing buffer at 37° C. for 25 minutes. Then, the liver was filtered with 70 μm cell strainer. Cells were centrifuged and collected followed by 8.2% Nycodenz (Accurate Chemical and Scientific Corp.). The cell lines were cultured at 37° C. in a humidified atmosphere containing 5% CO2.
Exponentially growing cells were harvested and seeded in a 6-well microtiter plate. Each well of cells were collected to eppendrof in 1 mL of TRIzol buffer (Invitrogen, Carlsbad, Calif., USA), and then mixed with 0.5 mL chloroform/isoamyl alcohol (24:1), eppendrofs were centrifuged at 12,000×g for 10 min at 4° C. The supernatant was transferred to a fresh tube, and isopropanol was added, mix well and stored at −80° C. overnight. The reaction mixture was centrifuged at 12,000×g for 30 min at 4° C. to produce a rude RNA pallet, the pellet was washed with 70% ethanol and air-dried. The concentrations of total RNA were measured by absorbance at 260 nm using a NanoDrop ND-1000 (NanoDrop, USA).
Reverse transcription reaction was performed using a commercially available set of High Capacity RNA-to-cDNA Kit (Applied Biosystems, USA). cDNA was prepared from 2 μg of total RNA per 20 μl reaction, according to the manufacturer's instructions—37° C. for 60 minutes, 95° C. for 5 minutes, and hold at 4° C. The resulting cDNA was to a final concentration of 100 ng/μl and constituted a matrix in further experiments.
Amplification and detection the gene expression by real-time PCR were performed using StepOne plus Real-time PCR System (Applied Biosystems, USA). Samples were assayed in a 10 μl reaction mixture containing 2 μl of template DNA, 5 μl of 2× TaqMan PCR Master Mix (Applied Biosystems, Life Technologies, Foster City, Calif., USA), 0.5 μl of 20× assay mix containing probe, forward and reverse primer (Applied Biosystems, Life Technologies, Foster City, Calif., USA), whereby qPCR targets with the following information were used: (a) α-SMA, Assay ID Rn01759928_g1, (b) TIMP-1, Assay ID Rn00587558_m1, (c) TGF-β1, Assay ID Rn00572010_m1, (d) Collagen I, Assay ID Rn 01463838_m1, (e) GAPDH, Assay ID Rn1462662_g1. To control variation in mRNA concentration, all results were normalized to the housekeeping gene, GAPDH. Relative quantitation was performed using the comparative ΔΔCt method according to the manufacturer's instructions. The cycling conditions used were as follows: 50° C. for 2 min, 95° C. for 10 min followed by 40 cycles of 95° C. for 15 s and 60° C. for 1 min each. […]

[2] = tested on: CuZnSOD, MnSOD, Catalase, Glutathione peroxidase, NADPH oxidase; experiment: Real-time RT-PCR of oxidative stress genes (anti-oxidant enzymes, NADPH oxidase) in liver of cirrhotic animals; assay type: in vivo, Wistar rats; conditions: compound B 7 mg/kg, compound C 14 mg/kg, ACM 320 mg/kg
Method: Sample tissues of rat livers were measured about 0.5×0.5 cm in area. Each of tissue was homogenized in 1 mL of TRIzol buffer (Invitrogen, Carlsbad, Calif., USA) with a motorized pestle, and then mixed with 0.5 mL chloroform/isoamyl alcohol (24:1), and was centrifuged at 12,000×g for 10 min at 4° C. The supernatant was transferred to a fresh tube, and isopropanol was added, mix well and stored at −80° C. overnight. The reaction mixture was centrifuged at 12,000×g for 30 min at 4° C. to produce a rude RNA pallet, the pellet was washed with 70% ethanol and air-dried. The concentrations of total RNA were measured by absorbance at 260 nm using a NanoDrop ND-1000 (NanoDrop, USA). Reverse transcription reaction was performed using a commercially available set of High Capacity RNA-to-cDNA Kit (Applied Biosystems, USA). cDNA was prepared from 2 μg of total RNA per 20 μl reaction, according to the manufacturer's instructions—37° C. for 60 minutes, 95° C. for 5 minutes, and hold at 4° C. The resulting cDNA was to a final concentration of 100 ng/μl and constituted a matrix in further experiments. Amplification and detection the gene expression by real-time PCR were performed using StepOne plus Real-time PCR System (Applied Biosystems, USA). Samples were assayed in a 10 μl reaction mixture containing 2 μl of template DNA, 5 μl of 2× TaqMan PCR Master Mix (Applied Biosystems, Life Technologies, Foster City, Calif., USA), 0.5 μl of 20× assay mix containing probe, forward and reverse primer (Applied Biosystems, Life Technologies, Foster City, Calif., USA), whereby qPCR targets with the following information were used: (a) Rat α-SMA, Assay ID Rn01759928_g1, (b) Rat TIMP, Assay ID Rn00587558_m1, (c) Rat TGF-β1, Assay ID Rn00572010_m1, (d) Rat Collagen I, Assay ID Rn 01463838_m1, (e) Rat CuZnSOD, Assay ID Rn00566938_m1, (f) Rat MnSOD, Assay ID Rn00690587_g1, (g) Rat Catalase, Assay ID Rn00560930_m1, (h) Rat Glutathione peroxidase, Assay ID Rn00577994_g1, (i) Rat NADPH oxidase, Assay ID Rn00585380_m1 and (j) Rat GAPDH, Assay ID Rn1462662_g1. To control variation in mRNA concentration, all results were normalized to the housekeeping gene, GAPDH. Relative quantitation was performed using the comparative ΔΔCt method according to the manufacture's instructions. The cycling conditions used were as follows: 50° C. for 2 min, 95° C. for 10 min followed by 40 cycles of 95° C. for 15 s and 60° C. for 1 min each.

| SMILES | anti-fibrosis effect on immortalized HSC in response to TGF-β (summary) [1] | Collagen-1 expression [1] | TGF-β expression [1] | TIMP-1 expression [1] | αSMA expression [1] | Catalase gene expression in liver [2] | CuZnSOD gene expression in liver [2] | Glutathione peroxidase gene expression in liver [2] | MnSOD gene expression in liver [2] | NADPH oxidase gene expression in liver [2] |
| --- | --- | --- | --- | --- | --- | --- | --- | --- | --- | --- |
| CC(C)=CCOc1ccc(C2=C(CC(C)C)C(=O)NC2=O)cc1 [Compound B, 3-isobutyl-4-[4-(3-methyl-2-butenyloxy)phenyl]-1H-pyrrol-2,5-dione] | anti-fibrosis effect | dose-dependent effect | dose-dependent effect | dose-dependent effect | dose-dependent effect | up-regulated significantly | up-regulated significantly | up-regulated significantly | up-regulated significantly | down-regulated significantly |
| CC(C)=CCOc1ccc(C2=C(CC(C)C)C(=O)N(O)C2=O)cc1 [Compound C, 3-isobutyl-4-[4-(3-methyl-2-butenyloxy)phenyl]-1H-pyrrol-1-ol-2,5-dione] | anti-fibrosis effect | dose-dependent effect | dose-dependent effect | dose-dependent effect | dose-dependent effect | up-regulated significantly | up-regulated significantly | up-regulated significantly | up-regulated significantly | down-regulated significantly |
